Data published in US4407794A, “Peptides and therapeutic applications thereof” (Centre National de la Recherche Scientifique (CNRS), priority 1980, dated 1983).
Peptide text beside a SMILES is read from it.

How the values were obtained:
[1] = assay type: cell-based, mice; details: mouse vas deferens, electric stimulation; number of experiments in parentheses; read-out: VAS DEFERENS IC 50
Method: (§1) The study of the action on μ receptors or on σ receptors was conducted as a function of the effect on the isolated ileum of guinea-pigs or on the vas deferens of mice.
(§2) The action on the σ receptors was determined by the measure of the 50% inhibiting concentration (IC 50) of the contraction of the vas deferens of mice, induced by electric stimulation.
(§3) The 50% inhibiting concentrations are expressed as nanomolar/liter concentrations.
(§4) The ratio [formula] makes it possible to find out whether the test material is […] σ- specific. In said Table, the number of experiments is indicated between parentheses.

σ receptors = assay type: cell-based, mice; details: for VAS DEFERENS Relative action: % activity with respect to Met-Enkephalin=100; for R IC 50 ileum / IC 50 V.D.: ratio of ileum (μ) IC50 to vas deferens IC50
Method: as §1, §2, §3, §4

mice = assay: Analgesic activity, hot-plate (65° C.) test, i.v.; assay type: in vivo; details: for Reaction time (s) 15' Licking: 15 minutes; for Reaction time (s) 30' Leap: 30 minutes; for Reaction time (s) 60' Adjusted jump: 60 minutes; for Reaction time (s) 90' Adjusted jump: 90 minutes
Method: The compounds were tested in vivo by the intravenous route (i.v.) in mice, using the hot-plate (65° C.) test in mice, according to the method disclosed by JACOB & BLOZOVSKI (Arch.Int.Pharmacodyn. 1961, 33,296) by determination of the licking reflex at 15 minutes, of the leap at 30 minutes and of the adjusted jump at 60 and 90 minutes.
DAla2 Met-Enkephalin was used as reference material.

μ receptors = μ receptors (Cavia porcellus, UniProt P97266); assay: Inhibition of the contraction of the isolated guinea-pig ileum induced by coaxial stimulation; assay type: cell-based, guinea-pigs; details: for ILEUM Relative action: % activity with respect to Met-Enkephalin=100; for IC50: isolated guinea-pig ileum, coaxial stimulation, number of experiments in parentheses, read-out: ILEUM IC 50
Sequence of μ receptors (P97266 whole entry, looked up): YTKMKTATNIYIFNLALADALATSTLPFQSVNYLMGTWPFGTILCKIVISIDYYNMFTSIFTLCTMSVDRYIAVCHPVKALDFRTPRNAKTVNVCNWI
Method: as §1
The action on the μ receptors was determined by the measure of the 50% inhibiting concentration (IC 50) of the contraction of the isolated ileum of guinea-pigs, induced by coaxial stimulation (PATON W.D.M., Brit.J. Pharm. 1959, 12, 119).
The 50% inhibiting concentrations are expressed as nanomolar/liter concentrations. Each product is tested with respect to Met-Enkephalin as reference material and the results obtained are also expressed as % activity with respect to Met-Enkephalin=100.
as §4

rats [2] = assay: Locomotor activity after i.v. administration; assay type: in vivo; details: 5 mg/kg i.v., male rats, group of 10; saline reference group 100 ± 15%
Method: This preferential effect of δ-specific compound I on the dopaminergic receptors may be evidenced by i.v. administration of compound I and determination of the locomotor activity according to STINUS et al. Proc.Natl. Acad.Sci.USA 77, 2302 (1980). Each experiment was conducted on a group of 10 animals (male rats weighing 200-250 g) and the results obtained were compared with those of a reference group.

liberation of dopamine = assay: Spontaneous liberation of dopamine, ICV injection tests; assay type: in vivo
rats [3] = assay: Naxolone susceptibility test, appearance of dependence (abstinence jumps); assay type: in vivo; details: 25 mg/kg 4 times a day for 10 days, Naxolone 10 mg/kg s.c. on the 10th day
Method: This test makes it possible to evaluate the dependence induced by chronic administration of morphinic analgesics. It comprises inducing the dependence condition after 10 days of treatment by injection of a high doage of an antagonist: naxolone. Compound 1 was tested by ICV administration in rats, using the technique according to Frederickson et al., Res. Common.Pathol.Pharmacol. 5, 867(1973).
The results obtained are set forth in Table IV below and are compared with those obtained with morphine.

rats [4] = assay: Anti-diarrhea action, castor oil test; assay type: in vivo; details: 10 rats, one hour prior to castor oil
Method: This action was investigated by the castor oil test in rats, using the method according to Niemegeers and co-workers (Arzn.-Forsch. 22, 516-518, 1972).
The tests were conducted with male rats of 160-220 g body weight. After an 18 hr fasting period, each animal was orally administered 1 ml castor oil.
The test compounds, dissolved in water, were administered orally under a volume of 0.5 ml per 100 g body weight, one hour prior to the castor oil administration.

CC(C)C[C@H](NC(=O)[C@H](Cc1ccccc1)NC(=O)CNC(=O)[C@@H](CO)NC(=O)[C@@H](N)Cc1ccc(O)cc1)C(=O)N[C@H](C(=O)O)[C@@H](C)O [Example 1, TyrD.SerGlyPheLeuThr]
IC50 [1]: 0.8 nM
VAS DEFERENS Relative action (σ receptors): 2250%
R IC 50 ileum / IC 50 V.D. (σ receptors): 796
Reaction time (s) 15' Licking (mice; 35 mg/kg i.v.): 29.4 ± 3.2 s
Reaction time (s) 30' Leap (mice; 35 mg/kg i.v.): 30.1 ± 5.7 s
Reaction time (s) 60' Adjusted jump (mice; 35 mg/kg i.v.): 28.6 ± 7.2 s
Reaction time (s) 90' Adjusted jump (mice; 35 mg/kg i.v.): 32.2 ± 9.2 s
ILEUM Relative action (μ receptors): 55%
IC50 (μ receptors): 637 nM
Locomotor activity (rats [2]): 65 ± 10%
Increase of spontaneous liberation of dopamine (liberation of dopamine; 5×10^-8 M): 100%
Abstinence test (jumps) (rats [3]): 10 ± 2 jumps

CN1CC[C@]23c4c5ccc(O)c4O[C@H]2[C@@H](O)C=C[C@H]3[C@H]1C5.Cl [Morphin (hydrochloride)]
Number of non-diarrheic animals 2 hours (rats [4]; 1 mg/kg orally): 9
Number of non-diarrheic animals 4 hours (rats [4]; 1 mg/kg orally): 4
Number of non-diarrheic animals 2 hours (rats [4]; 3 mg/kg orally): 10
Number of non-diarrheic animals 4 hours (rats [4]; 3 mg/kg orally): 6

DAla^2 Met.Enkamide
Increase of spontaneous liberation of dopamine (liberation of dopamine; 10^-6 M): 100%

CC(C)C[C@H](NC(=O)[C@H](Cc1ccccc1)NC(=O)CNC(=O)[C@@H](C)NC(=O)[C@@H](N)Cc1ccc(O)cc1)C(=O)N[C@H](C(=O)O)[C@@H](C)O [Example 2, TyrD.AlaGlyPheLeuThr] (HELM PEPTIDE1{Y.[dA].G.F.L.T}$$$$V2.0)
IC50 (μ receptors): 500 nM

CC(C)C[C@@H](NC(=O)[C@H](Cc1ccccc1)NC(=O)CNC(=O)[C@@H](CO)NC(=O)[C@@H](N)Cc1ccc(O)cc1)C(=O)O [Example 45, TyrD.SerGlyPheD.Leu] (HELM PEPTIDE1{Y.[dS].G.F.[dL]}$$$$V2.0)
IC50 (μ receptors): 247 nM

CSCC[C@H](NC(=O)[C@H](Cc1ccccc1)NC(=O)CNC(=O)CNC(=O)[C@@H](N)Cc1ccc(O)cc1)C(=O)O [Met-Enkephalin]
VAS DEFERENS Relative action (σ receptors): 100%
ILEUM Relative action (μ receptors): 100%
IC50 (μ receptors): 354 nM

CSCC[C@H](NC(=O)[C@H](Cc1ccccc1)NC(=O)CNC(=O)[C@@H](C)NC(=O)[C@@H](N)Cc1ccc(O)cc1)C(=O)NCCCCCNS(=O)(=O)c1cccc2c(N(C)C)cccc12 [Example 13 of patent FR 78 12 543]
IC50 [1]: 650 nM
VAS DEFERENS Relative action (σ receptors): 2.7%
R IC 50 ileum / IC 50 V.D. (σ receptors): 0.49
ILEUM Relative action (μ receptors): 110%

CCCC[C@H](NC(=O)[C@H](Cc1ccccc1)NC(=O)CNC(=O)[C@@H](CO)NC(=O)[C@@H](N)Cc1ccc(O)cc1)C(=O)N[C@H](C(=O)O)[C@@H](C)O [Example 25, TyrD.SerGlyPheN.LeuThr]
IC50 (μ receptors): 1050 nM

CN1CC[C@]23c4c5ccc(O)c4O[C@H]2[C@@H](O)C=C[C@H]3[C@H]1C5 [Morphin, morphine]
Increase of spontaneous liberation of dopamine (liberation of dopamine; 10^-6 M): 50%
Abstinence test (jumps) (rats [3]): 74 ± 11 jumps

D.Ala2 Met-Enkephalin
Reaction time (s) 15' Licking (mice; 100 mg/kg i.v.): 5.5 ± 1 s
Reaction time (s) 30' Leap (mice; 100 mg/kg i.v.): 5.5 ± 1.6 s
Reaction time (s) 60' Adjusted jump (mice; 100 mg/kg i.v.): 5.5 ± 1.2 s
Reaction time (s) 90' Adjusted jump (mice; 100 mg/kg i.v.): 5.6 ± 2 s

COc1ccc2c3c1O[C@H]1[C@@H](O)C=C[C@H]4[C@@H](C2)N(C)CC[C@@]341 [Codein base]
Number of non-diarrheic animals 2 hours (rats [4]; 3 mg/kg orally): 7
Number of non-diarrheic animals 4 hours (rats [4]; 3 mg/kg orally): 4
Number of non-diarrheic animals 2 hours (rats [4]; 10 mg/kg orally): 10
Number of non-diarrheic animals 4 hours (rats [4]; 10 mg/kg orally): 7
